Results as given in EP4603105A1, “PHARMACEUTICAL COMPOSITION CONTAINING CYCLIC COMPOUND HAVING SELECTIVE KRAS INHIBITORY EFFECT AGAINST HRAS AND NRAS” (CHUGAI SEIYAKU KABUSHIKI KAISHA, priority 2022, dated 2024).

Tests used:
[1] = target: GDP-bound NRAS wild-type protein (Homo sapiens, UniProt P01111); experiment: Binding to NRAS by surface plasmon resonance (SPR), KD and KD ratio to KRAS
Procedure, shortened: (§1)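 Compound binding is evaluated by SPR single-cycle kinetics, with concentrations added intermittently from low to high for 75 s each. Target surfaces carry GDP-loaded biotinylated Avi-RAS at about 100–300 RU, regenerated after each cycle; temperature 30°C. A 1:1 binding model gives KD.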

HRAS wild-type protein = HRAS wild-type protein (Homo sapiens, UniProt P01112); experiment: Binding to HRAS by surface plasmon resonance (SPR), KD and KD ratio to KRAS
Procedure, shortened: as §1

[2] = tested on: human lung cancer strain NCI-H441; assay type: cell-based
Procedure, shortened: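 Proliferation was scored by […] measured after the reagent was added to cultures kept at 37°C in 5% carbon dioxide.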

[3] = ratio of the KD value with respect to GDP-bound NRAS wild-type protein to the KD value with respect to KRAS
[4] = ratio of the KD value with respect to HRAS wild-type protein to the KD value with respect to KRAS

Chain of HRAS wild-type protein (P01112 whole entry): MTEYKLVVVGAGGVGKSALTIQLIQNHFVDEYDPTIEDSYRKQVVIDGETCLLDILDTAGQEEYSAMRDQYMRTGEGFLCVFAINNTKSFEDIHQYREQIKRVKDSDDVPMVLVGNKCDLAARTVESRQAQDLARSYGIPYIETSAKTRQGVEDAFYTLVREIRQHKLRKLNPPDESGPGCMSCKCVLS
Chain of GDP-bound NRAS wild-type protein (P01111 whole entry): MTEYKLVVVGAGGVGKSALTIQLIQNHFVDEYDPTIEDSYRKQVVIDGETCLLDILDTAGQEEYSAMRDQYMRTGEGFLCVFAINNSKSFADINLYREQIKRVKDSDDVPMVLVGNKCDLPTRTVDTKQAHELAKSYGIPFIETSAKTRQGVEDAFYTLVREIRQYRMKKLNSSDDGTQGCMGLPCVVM

| Compound | IC50 [2] [nM] | NRAS /KRAS [1, 3] | HRAS /KRAS (HRAS wild-type protein; [4]) | further results |
| --- | --- | --- | --- | --- |
| CCCOC[C@H]1C(=O)N[C@@H]([C@@H](C)CC)C(=O)N(C)CC(=O)N(C)[C@H]2C/C=C\CCN(C2=O)[C@@H](Cc2ccc(C(F)(F)F)cc2)C(=O)N(C)CC(=O)N[C@@H](CCc2ccc(C(F)(F)F)c(OC)c2)C(=O)N2C[C@H](OCC)C[C@H]2C(=O)NC2(CCC2)C(=O)N(C)[C@@H](C2CCCC2)C(=O)N(C)[C@H](C(=O)N(C)CC)CC(=O)N1C [PP2016] | 8.2 | A (a compound having 10 or more and less than 20 is denoted as A) | A (a compound having 10 or more and less than 20 is denoted as A) |  |
| CCC[C@H]1C(=O)N[C@@H]([C@@H](C)CC)C(=O)N(C)CC(=O)N(C)[C@H]2C/C=C\CCN(C2=O)[C@@H](Cc2ccc(C(F)(F)F)cc2)C(=O)N(C)CC(=O)N[C@@H](CCc2ccc3c(C)cn(C)c3c2)C(=O)N2C[C@H](OCC)C[C@H]2C(=O)NC2(CC(C)(C)C2)C(=O)N(C)[C@@H](C2CCCC2)C(=O)N(C)[C@H](C(=O)N(C)C)CC(=O)N1C [PP2897] | 10.5 |  |  | NRAS /KRAS ([1]; ratio of KD for GDP-bound NRAS wild-type protein to KD for KRAS): A (a compound having 10 or more and less than 20 is denoted as A); HRAS /KRAS (HRAS wild-type protein; ratio of KD for HRAS wild-type protein to KD for KRAS): B (a compound having 3 or more and less than 10 is denoted as B) |
| CCO[C@@H]1C[C@H]2C(=O)NC3(CCC3)C(=O)N(C)[C@@H](C(CC)CC)C(=O)N(C)[C@H](C(=O)N(C)C)CC(=O)N(C)[C@@H](CC3CCCC3)C(=O)N[C@@H]([C@@H](C)CC)C(=O)N(C)CC(=O)N(C)[C@H]3C/C=C\CCN(C3=O)[C@@H](Cc3ccc(F)cc3C)C(=O)N(C)CC(=O)N[C@@H](CCc3cc(F)c(C(F)(F)F)c(F)c3)C(=O)N2C1 [PP1516] | 45.7 |  |  | NRAS /KRAS ([1]; ratio of KD value for GDP-bound NRAS wild-type protein to KD value for KRAS (SPR)): A (a compound having 10 or more and less than 20 is denoted as A); HRAS /KRAS (HRAS wild-type protein; ratio of KD value for HRAS wild-type protein to KD value for KRAS (SPR)): B (a compound having 3 or more and less than 10 is denoted as B) |

Second part, led by results:

| IC50 [2] [nM] | Compound | NRAS /KRAS [1, 3] | HRAS /KRAS (HRAS wild-type protein; [4]) | further results |
| --- | --- | --- | --- | --- |
| 30.2 | CCCN1C(=O)[C@H](C2CCCC2)N(C)C(=O)C2(CCC2)NC(=O)[C@@H]2C[C@@H](OCC)CN2C(=O)[C@H](CCc2cc(F)c(C(F)(F)F)c(F)c2)NC(=O)CN(C)C(=O)[C@H](Cc2ccc(C(F)(F)F)cc2)N2CCCC[C@@H](C2=O)N(C)C(=O)CN(C)C(=O)[C@H]([C@@H](C)CC)NC(=O)[C@H](CC(C)C)N(C)C(=O)C[C@H]1C(=O)N1CCOCC1 [PP0649] | C (A compound having a KD ratio of 0.1 or more and less than 3 is denoted as C) | B (a compound having 3 or more and less than 10 is denoted as B) |  |
| 44 | CCO[C@@H]1C[C@H]2C(=O)NC3(CC(C)(C)C3)C(=O)N(CC)[C@@H](C3CCCC3)C(=O)N(C)[C@H](C(=O)N(C)C)CC(=O)N(C)[C@@H](CC)C(=O)N[C@@H]([C@@H](C)CC)C(=O)N(C)CC(=O)N(C)[C@H]3C/C=C\CCN(C3=O)[C@@H](Cc3ccc(C(F)(F)F)cc3)C(=O)N(C)CC(=O)N[C@@H](CCc3cc(F)c(C(F)(F)F)c(F)c3)C(=O)N2C1 [PP1913] | A (a compound having 10 or more and less than 20 is denoted as A) | A (a compound having 10 or more and less than 20 is denoted as A) |  |
| 57.5 | CCO[C@@H]1C[C@H]2C(=O)NC3(CCC3)C(=O)N(C)[C@@H](C3CCCC3)C(=O)N(C)[C@H](C(=O)N(C)CCOC)CC(=O)N(C)[C@@H](C)C(=O)N[C@@H]([C@@H](C)CC)C(=O)N(C)CC(=O)N(C)[C@H]3C/C=C\CCN(C3=O)[C@@H](Cc3ccc(C(F)(F)F)cc3)C(=O)N(C)CC(=O)N[C@@H](CCc3cc(F)c(C(F)(F)F)c(F)c3)C(=O)N2C1 [PP1319] |  |  | NRAS /KRAS ([1]; ratio of KD with respect to GDP-bound NRAS wild-type protein to KD with respect to KRAS): A (a compound having 10 or more and less than 20 is denoted as A); HRAS /KRAS (HRAS wild-type protein; ratio of KD with respect to HRAS wild-type protein to KD with respect to KRAS): B (a compound having 3 or more and less than 10 is denoted as B) |
| 60.7 | CCO[C@@H]1C[C@H]2C(=O)NC3(CCC3)C(=O)N(C)[C@@H](C3CCCC3)C(=O)N(C)[C@H](C(=O)N3CCOCC3)CC(=O)N(C)[C@@H](CCOC)C(=O)N[C@@H]([C@@H](C)CC)C(=O)N(C)CC(=O)N(C)[C@H]3CCCCCN(C3=O)[C@@H](Cc3ccc(C(F)(F)F)cc3)C(=O)N(C)CC(=O)N[C@@H](CCc3cc(F)c(C(F)(F)F)c(F)c3)C(=O)N2C1 [PP0690] | B (a compound having 3 or more and less than 10 is denoted as B) | B (a compound having 3 or more and less than 10 is denoted as B) |  |
